Source: publication PMC2615555 (Virology, 2008)

Key:
I-A^d = target: T1, I-A^d (Mus musculus, UniProt P01921+P04228); experiment: biochemical; format: binding, BALB/c mouse
T1 sequence (P04228 24-256): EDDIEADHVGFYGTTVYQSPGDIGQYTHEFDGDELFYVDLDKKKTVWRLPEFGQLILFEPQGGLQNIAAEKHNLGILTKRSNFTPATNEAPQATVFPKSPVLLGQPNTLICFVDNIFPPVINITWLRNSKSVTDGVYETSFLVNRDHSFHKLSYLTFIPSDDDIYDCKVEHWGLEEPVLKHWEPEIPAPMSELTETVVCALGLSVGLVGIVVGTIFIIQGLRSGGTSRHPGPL
T1 sequence (P01921 28-265): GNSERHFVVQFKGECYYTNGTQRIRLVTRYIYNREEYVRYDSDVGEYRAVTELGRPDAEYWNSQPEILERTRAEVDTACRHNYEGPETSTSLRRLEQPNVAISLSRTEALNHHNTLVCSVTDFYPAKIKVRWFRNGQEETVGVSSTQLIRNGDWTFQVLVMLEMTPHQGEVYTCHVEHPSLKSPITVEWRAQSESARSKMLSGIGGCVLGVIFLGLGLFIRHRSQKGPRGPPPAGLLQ

I-E^d = target: T2, I-E^d (Mus musculus, UniProt P01904+P01915); experiment: biochemical; format: binding, BALB/c mouse
T2 sequence (P01904 26-255): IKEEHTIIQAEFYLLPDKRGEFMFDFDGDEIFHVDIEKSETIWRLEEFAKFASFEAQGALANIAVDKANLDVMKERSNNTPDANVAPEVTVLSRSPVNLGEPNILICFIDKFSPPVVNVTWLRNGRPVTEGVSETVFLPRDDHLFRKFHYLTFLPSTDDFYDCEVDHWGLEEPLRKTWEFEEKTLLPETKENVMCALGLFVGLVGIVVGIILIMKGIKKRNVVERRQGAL
T2 sequence (P01915 27-264 limits assumed): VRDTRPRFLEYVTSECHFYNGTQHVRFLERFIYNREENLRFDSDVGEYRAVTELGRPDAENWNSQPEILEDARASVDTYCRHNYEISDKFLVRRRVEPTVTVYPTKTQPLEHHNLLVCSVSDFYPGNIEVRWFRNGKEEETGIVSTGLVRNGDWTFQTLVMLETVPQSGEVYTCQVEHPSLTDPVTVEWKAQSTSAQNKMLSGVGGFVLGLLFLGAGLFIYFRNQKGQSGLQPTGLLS

[1] = Binding Assay IC50, I-A^d (envelope 15mers)
[2] = Binding Assay IC50, I-A^d (membrane 15mers)

For `CC[C@H](C)[C@H](NC(=O)[C@@H](NC(=O)[C@H](C)NC(=O)[C@H](C)NC(=O)[C@H](Cc1c[nH]cn1)NC(=O)[C@@H]1CCCN1)[C@@H](C)O)C(=O)N[C@@H](CCCNC(=N)N)C(=O)N[C@H](C(=O)N[C@@H](CC(C)C)C(=O)N[C@@H](C)C(=O)N[C@@H](CC(C)C)C(=O)NCC(=O)N[C@@H](CC(N)=O)C(=O)N[C@@H](CCC(N)=O)C(=O)N[C@@H](CCC(=O)O)C(=O)O)C(C)C` [E237–251], the IC50 (I-A^d; [1]) was under 1 µM.
`CSCC[C@H](NC(=O)[C@H](CCCNC(=N)N)NC(=O)CNC(=O)[C@@H](NC(=O)[C@H](CCSC)NC(=O)[C@H](Cc1c[nH]c2ccccc12)NC(=O)[C@H](CCCCN)NC(=O)[C@H](CCC(=O)O)NC(=O)[C@H](CCC(N)=O)NC(=O)[C@H](CCCNC(=N)N)NC(=O)[C@@H](NC(=O)[C@@H](N)CCCCN)[C@@H](C)O)[C@@H](C)O)C(=O)NCC(=O)N[C@@H](CCC(=O)O)C(=O)N[C@@H](CCCNC(=N)N)C(=O)O` [M13–27] gave an IC50 (I-E^d) of over 45 µM and an IC50 (I-A^d; [2]) of 1.9 µM.
`CC[C@H](C)[C@H](NC(=O)[C@H](C)N)C(=O)N[C@@H](CC(=O)O)C(=O)N[C@@H](CC(C)C)C(=O)N1CCC[C@H]1C(=O)N[C@H](C(=O)N[C@@H](Cc1c[nH]cn1)C(=O)N[C@@H](CCC(=O)O)C(=O)N[C@@H](CC(N)=O)C(=O)N[C@@H](Cc1c[nH]cn1)C(=O)NCC(=O)N[C@@H](CC(C)C)C(=O)N[C@@H](CCCCN)C(=O)N[C@H](C(=O)N[C@@H](CCCNC(=N)N)C(=O)O)[C@@H](C)O)[C@@H](C)O` [M1–15] gave an IC50 (I-E^d) of 36.6 µM and an IC50 (I-A^d; [2]) of over 45 µM.
For `CSCC[C@H](NC(=O)[C@H](Cc1c[nH]c2ccccc12)NC(=O)[C@H](CCCCN)NC(=O)[C@H](CCC(=O)O)NC(=O)[C@H](CCC(N)=O)NC(=O)[C@H](CCCNC(=N)N)NC(=O)[C@@H](NC(=O)[C@H](CCCCN)NC(=O)[C@H](CC(C)C)NC(=O)CNC(=O)[C@H](Cc1c[nH]cn1)NC(=O)[C@@H](N)CC(N)=O)[C@@H](C)O)C(=O)N[C@H](C(=O)NCC(=O)N[C@@H](CCCNC(=N)N)C(=O)O)[C@@H](C)O` [M9–23], the IC50 (I-E^d) was over 45 µM and the IC50 (I-A^d; [2]) was 40.9 µM.
Compound `CSCC[C@H](NC(=O)[C@H](CCCNC(=N)N)NC(=O)CNC(=O)[C@@H](NC(=O)[C@H](CCSC)NC(=O)[C@H](Cc1c[nH]c2ccccc12)NC(=O)[C@H](CCCCN)NC(=O)[C@@H](N)CCC(=O)O)[C@@H](C)O)C(=O)NCC(=O)N[C@@H](CCC(=O)O)C(=O)N[C@@H](CCCNC(=N)N)C(=O)N[C@@H](CCC(N)=O)C(=O)N[C@@H](CC(C)C)C(=O)N[C@@H](CCC(N)=O)C(=O)N[C@@H](CCCCN)C(=O)O` [M17–31] has an IC50 (I-E^d) of 20.7 µM and an IC50 (I-A^d; [2]) of 20.4 µM.
`CC[C@H](C)[C@H](NC(=O)[C@@H](NC(=O)[C@H](C)NC(=O)[C@H](C)NC(=O)[C@H](Cc1c[nH]cn1)NC(=O)[C@@H]1CCCN1C(=O)[C@@H]1CCCN1C(=O)[C@H](CCC(=O)O)NC(=O)[C@H](Cc1ccccc1)NC(=O)[C@@H](N)CCC(=O)O)[C@@H](C)O)C(=O)N[C@@H](CCCNC(=N)N)C(=O)N[C@H](C(=O)N[C@@H](CC(C)C)C(=O)N[C@@H](C)C(=O)N[C@@H](CC(C)C)C(=O)O)C(C)C` [E233–247] was tested, and the “Binding Assay IC50, I-E^d (envelope 15mers)” value (I-E^d) was “high affinity” and the IC50 (I-A^d; [1]) was under 1 µM.
`CC[C@H](C)[C@H](NC(=O)[C@@H](NC(=O)[C@H](CC(C)C)NC(=O)[C@H](C)NC(=O)[C@@H](NC(=O)[C@@H](NC(=O)[C@H](C)NC(=O)[C@H](Cc1ccccc1)NC(=O)[C@@H](N)Cc1ccccc1)C(C)C)[C@@H](C)O)[C@@H](C)O)C(=O)N[C@@H](C)C(=O)N[C@@H](Cc1ccc(O)cc1)C(=O)N[C@@H](CC(C)C)C(=O)N[C@H](C(=O)NCC(=O)N[C@@H](CO)C(=O)O)C(C)C` [M41–55] was tested, and the IC50 (I-E^d) was over 45 µM and the IC50 (I-A^d; [2]) was 6.21 µM.
`CC[C@H](C)[C@H](NC(=O)[C@@H](NC(=O)[C@@H](NC(=O)[C@H](CCCNC(=N)N)NC(=O)[C@H](CCC(N)=O)NC(=O)[C@@H](NC(=O)[C@@H](N)CCSC)[C@@H](C)O)C(C)C)C(C)C)C(=O)N[C@@H](C)C(=O)N[C@@H](CC(C)C)C(=O)N[C@@H](CC(C)C)C(=O)N[C@H](C(=O)N[C@@H](CC(C)C)C(=O)N[C@@H](C)C(=O)N[C@H](C(=O)NCC(=O)O)C(C)C)C(C)C` [M57–71] was tested, and the IC50 (I-E^d) was over 45 µM and the IC50 (I-A^d; [2]) was 6.48 µM.
`CC[C@H](C)[C@H](NC(=O)[C@H](CCCCN)NC(=O)[C@@H](N)[C@@H](C)O)C(=O)N[C@@H](CCC(N)=O)C(=O)N[C@@H](Cc1ccc(O)cc1)C(=O)N[C@H](C(=O)N[C@H](C(=O)N[C@@H](CCCNC(=N)N)C(=O)N[C@@H](C)C(=O)N[C@@H](CCC(N)=O)C(=O)N[C@@H](CC(C)C)C(=O)N[C@@H](Cc1c[nH]cn1)C(=O)N[C@H](C(=O)NCC(=O)N[C@@H](C)C(=O)O)C(C)C)[C@@H](C)CC)C(C)C` [E133–147] was tested, and the IC50 (I-A^d; [1]) was under 1 µM.
`CC[C@H](C)[C@H](NC(=O)[C@H](CCCCN)NC(=O)[C@H](CCC(N)=O)NC(=O)[C@@H](N)CC(C)C)C(=O)N[C@@H](CCC(=O)O)C(=O)N[C@@H](CCCNC(=N)N)C(=O)N[C@@H](Cc1c[nH]c2ccccc12)C(=O)N[C@@H](Cc1ccccc1)C(=O)N[C@H](C(=O)N[C@@H](CCCNC(=N)N)C(=O)N[C@@H](CC(N)=O)C(=O)N1CCC[C@H]1C(=O)N[C@@H](Cc1ccccc1)C(=O)N[C@@H](Cc1ccccc1)C(=O)N[C@@H](C)C(=O)O)C(C)C` [M29–43] gave an IC50 (I-E^d) of 1.56 µM and an IC50 (I-A^d; [2]) of 0.593 µM.
For `CC[C@H](C)[C@H](NC(=O)[C@@H](NC(=O)[C@@H](N)C(C)C)C(C)C)C(=O)N[C@@H](C)C(=O)N[C@@H](CC(C)C)C(=O)N[C@@H](CC(C)C)C(=O)N[C@H](C(=O)N[C@@H](CC(C)C)C(=O)N[C@@H](C)C(=O)N[C@H](C(=O)NCC(=O)N1CCC[C@H]1C(=O)N[C@@H](C)C(=O)N[C@@H](Cc1ccc(O)cc1)C(=O)N[C@@H](CO)C(=O)O)C(C)C)C(C)C` [M61–75], the IC50 (I-E^d) was over 45 µM and the IC50 (I-A^d; [2]) was 0.38 µM.
Compound `CC[C@H](C)[C@H](NC(=O)CN)C(=O)N[C@@H](CC(N)=O)C(=O)N[C@H](C(=O)N[C@@H](CCCNC(=N)N)C(=O)N[C@@H](CC(N)=O)C(=O)N[C@@H](CCSC)C(=O)N[C@H](C(=O)N[C@@H](CCSC)C(=O)N[C@@H](CO)C(=O)N[C@@H](CCSC)C(=O)N[C@@H](CO)C(=O)N[C@@H](CCSC)C(=O)N[C@H](C(=O)N[C@@H](CC(C)C)C(=O)O)[C@@H](C)CC)[C@@H](C)O)[C@@H](C)O` [E465–479] has an IC50 (I-A^d; [1]) of under 1 µM.
In the case of `CC[C@H](C)[C@H](N)C(=O)N[C@@H](C)C(=O)N[C@@H](Cc1ccc(O)cc1)C(=O)N[C@@H](CC(C)C)C(=O)N[C@H](C(=O)NCC(=O)N[C@@H](CO)C(=O)N[C@@H](CC(N)=O)C(=O)N[C@@H](CCSC)C(=O)N[C@H](C(=O)N[C@@H](CCC(N)=O)C(=O)N[C@@H](CCCNC(=N)N)C(=O)N[C@H](C(=O)N[C@H](C(=O)N[C@H](C(=O)O)[C@@H](C)CC)C(C)C)C(C)C)[C@@H](C)O)C(C)C` [M49–63], the IC50 (I-E^d) is reported as 29.7 µM and the IC50 (I-A^d; [2]) is reported as 0.383 µM.
`CC[C@H](C)[C@H](NC(=O)[C@@H](NC(=O)[C@H](CC(C)C)NC(=O)[C@H](C)NC(=O)[C@@H](N)[C@@H](C)O)[C@@H](C)O)C(=O)N[C@@H](C)C(=O)N[C@@H](Cc1ccc(O)cc1)C(=O)N[C@@H](CC(C)C)C(=O)N[C@H](C(=O)NCC(=O)N[C@@H](CO)C(=O)N[C@@H](CC(N)=O)C(=O)N[C@@H](CCSC)C(=O)N[C@H](C(=O)N[C@@H](CCC(N)=O)C(=O)O)[C@@H](C)O)C(C)C` [M45–59] showed an IC50 (I-E^d) of over 45 µM and an IC50 (I-A^d; [2]) of 0.102 µM.
`CSCC[C@H](NC(=O)[C@H](CC(C)C)NC(=O)[C@H](CO)NC(=O)[C@H](C)NC(=O)[C@@H](NC(=O)[C@@H](NC(=O)[C@H](CCCNC(=N)N)NC(=O)[C@H](CCCCN)NC(=O)[C@@H](NC(=O)[C@H](CCCCN)NC(=O)[C@@H](N)CCCNC(=N)N)C(C)C)C(C)C)C(C)C)C(=O)N[C@@H](CCCNC(=N)N)C(=O)NCC(=O)N[C@@H](CC(C)C)C(=O)N[C@@H](CO)C(=O)O` [C81–95] was tested, and the “Binding Assay IC50, I-A^d (capsid 15mers)” value (I-A^d) was “high affinity”.
With `CC[C@H](C)[C@H](NC(=O)[C@H](CCCCN)NC(=O)[C@@H](NC(=O)[C@H](CCC(N)=O)NC(=O)[C@H](CC(=O)O)NC(=O)[C@@H](NC(=O)[C@@H](N)CCC(=O)O)C(C)C)[C@@H](C)O)C(=O)N[C@@H](CCC(N)=O)C(=O)N[C@@H](Cc1ccc(O)cc1)C(=O)N[C@H](C(=O)N[C@H](C(=O)N[C@@H](CCCNC(=N)N)C(=O)N[C@@H](C)C(=O)N[C@@H](CCC(N)=O)C(=O)N[C@@H](CC(C)C)C(=O)O)[C@@H](C)CC)C(C)C` [E129–143] the IC50 (I-A^d; [1]) was under 1 µM.
In the case of `CSCC[C@H](NC(=O)[C@H](CC(C)C)NC(=O)[C@H](CO)NC(=O)[C@H](C)NC(=O)[C@@H](NC(=O)[C@@H](NC(=O)[C@H](CCCNC(=N)N)NC(=O)[C@H](CCCCN)NC(=O)[C@@H](NC(=O)[C@H](CCCCN)NC(=O)[C@H](CCCNC(=N)N)NC(=O)[C@H](CC(C)C)NC(=O)[C@@H](NC(=O)[C@H](C)NC(=O)[C@@H](N)CC(C)C)C(C)C)C(C)C)C(C)C)C(C)C)C(=O)O` [C77–91], the “Binding Assay IC50, I-A^d (capsid 15mers)” value (I-A^d) is reported as “high affinity”.
